Source: ChEMBL document CHEMBL1201862, “PubChem BioAssay data set” (2004)
Activity calls are given as the source filed them.

Legend:
[1] = target: T1, Sentrin-specific protease 6 (Homo sapiens, UniProt Q9GZR1); assay type: functional;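 further: Luminescence-based dose-response confirmatory assay of SENP6 inhibition, following up an ultra-high-throughput screen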
T1 sequence (Q9GZR1 whole entry): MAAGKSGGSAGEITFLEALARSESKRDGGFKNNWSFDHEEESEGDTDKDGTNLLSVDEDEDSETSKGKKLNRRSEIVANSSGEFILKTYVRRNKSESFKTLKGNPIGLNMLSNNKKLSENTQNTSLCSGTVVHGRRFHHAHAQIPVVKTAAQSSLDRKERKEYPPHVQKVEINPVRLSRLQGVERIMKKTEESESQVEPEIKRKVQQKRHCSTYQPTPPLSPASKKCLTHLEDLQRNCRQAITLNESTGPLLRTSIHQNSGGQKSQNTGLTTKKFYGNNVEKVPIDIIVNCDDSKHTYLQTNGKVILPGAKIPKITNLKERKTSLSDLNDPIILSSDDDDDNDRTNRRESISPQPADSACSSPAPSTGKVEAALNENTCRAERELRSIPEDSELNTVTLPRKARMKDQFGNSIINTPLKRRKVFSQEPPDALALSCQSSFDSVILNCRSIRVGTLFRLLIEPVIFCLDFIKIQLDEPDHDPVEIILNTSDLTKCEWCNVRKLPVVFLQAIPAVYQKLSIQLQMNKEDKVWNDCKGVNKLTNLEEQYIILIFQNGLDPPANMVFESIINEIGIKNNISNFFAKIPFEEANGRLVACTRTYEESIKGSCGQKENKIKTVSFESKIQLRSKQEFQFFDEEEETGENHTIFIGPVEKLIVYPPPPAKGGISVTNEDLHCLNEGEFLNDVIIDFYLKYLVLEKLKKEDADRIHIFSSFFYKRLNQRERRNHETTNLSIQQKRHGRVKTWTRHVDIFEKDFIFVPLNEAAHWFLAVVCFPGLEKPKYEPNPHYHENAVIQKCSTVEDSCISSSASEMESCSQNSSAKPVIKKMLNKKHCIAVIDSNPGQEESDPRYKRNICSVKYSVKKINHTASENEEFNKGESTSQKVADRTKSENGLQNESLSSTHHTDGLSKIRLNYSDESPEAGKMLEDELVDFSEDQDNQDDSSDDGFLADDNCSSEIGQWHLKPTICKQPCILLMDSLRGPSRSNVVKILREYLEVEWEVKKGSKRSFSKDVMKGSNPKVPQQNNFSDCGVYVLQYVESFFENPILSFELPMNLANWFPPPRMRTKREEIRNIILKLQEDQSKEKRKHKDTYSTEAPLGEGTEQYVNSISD

[2] = target: Tyrosyl-DNA phosphodiesterase 2 (Homo sapiens, UniProt O95551); experiment: potency against TDP2 phosphodiesterase activity – biochemical, epi absorbance, IC50, dose response (AID 743297)
[3] = viability of HCT116 lacking mutant beta-catenin – cell-based, human colon tumor, dose response (AID 1045); assay type: functional;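 further: HCT116 colon tumor cells with beta catenin knocked out; cells exposed to compound for 60 hours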
[4] = target: T2, Caspase-3 (Homo sapiens, UniProt P42574); assay type: functional;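 further: Dose-response selectivity test against caspase-3 for candidate inhibitors of sentrin-specific proteases (SENPs)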
T2 sequence (P42574 whole entry): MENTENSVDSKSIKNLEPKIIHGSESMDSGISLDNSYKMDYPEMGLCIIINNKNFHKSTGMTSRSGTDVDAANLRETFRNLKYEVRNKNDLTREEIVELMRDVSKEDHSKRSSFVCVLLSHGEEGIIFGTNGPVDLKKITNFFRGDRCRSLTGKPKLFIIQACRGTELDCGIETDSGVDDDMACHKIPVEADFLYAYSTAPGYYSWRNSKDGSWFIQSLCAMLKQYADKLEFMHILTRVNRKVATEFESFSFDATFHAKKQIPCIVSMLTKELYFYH

[5] = target: Heat shock protein HSP 90-alpha (Homo sapiens, UniProt P07900); experiment: Luminescence-based dose response biochemical high throughput screening assay for inhibitors of the Heat Shock Protein 90 (HSP90). [Related pubchem assays: 1831 (Summary AID.), 1846 (Confirmation screen.), 1789 (Primary screen.)]
[6] = target: T3, Apoptotic protease-activating factor 1 (Homo sapiens, UniProt O14727); assay type: functional
T3 sequence (O14727 whole entry): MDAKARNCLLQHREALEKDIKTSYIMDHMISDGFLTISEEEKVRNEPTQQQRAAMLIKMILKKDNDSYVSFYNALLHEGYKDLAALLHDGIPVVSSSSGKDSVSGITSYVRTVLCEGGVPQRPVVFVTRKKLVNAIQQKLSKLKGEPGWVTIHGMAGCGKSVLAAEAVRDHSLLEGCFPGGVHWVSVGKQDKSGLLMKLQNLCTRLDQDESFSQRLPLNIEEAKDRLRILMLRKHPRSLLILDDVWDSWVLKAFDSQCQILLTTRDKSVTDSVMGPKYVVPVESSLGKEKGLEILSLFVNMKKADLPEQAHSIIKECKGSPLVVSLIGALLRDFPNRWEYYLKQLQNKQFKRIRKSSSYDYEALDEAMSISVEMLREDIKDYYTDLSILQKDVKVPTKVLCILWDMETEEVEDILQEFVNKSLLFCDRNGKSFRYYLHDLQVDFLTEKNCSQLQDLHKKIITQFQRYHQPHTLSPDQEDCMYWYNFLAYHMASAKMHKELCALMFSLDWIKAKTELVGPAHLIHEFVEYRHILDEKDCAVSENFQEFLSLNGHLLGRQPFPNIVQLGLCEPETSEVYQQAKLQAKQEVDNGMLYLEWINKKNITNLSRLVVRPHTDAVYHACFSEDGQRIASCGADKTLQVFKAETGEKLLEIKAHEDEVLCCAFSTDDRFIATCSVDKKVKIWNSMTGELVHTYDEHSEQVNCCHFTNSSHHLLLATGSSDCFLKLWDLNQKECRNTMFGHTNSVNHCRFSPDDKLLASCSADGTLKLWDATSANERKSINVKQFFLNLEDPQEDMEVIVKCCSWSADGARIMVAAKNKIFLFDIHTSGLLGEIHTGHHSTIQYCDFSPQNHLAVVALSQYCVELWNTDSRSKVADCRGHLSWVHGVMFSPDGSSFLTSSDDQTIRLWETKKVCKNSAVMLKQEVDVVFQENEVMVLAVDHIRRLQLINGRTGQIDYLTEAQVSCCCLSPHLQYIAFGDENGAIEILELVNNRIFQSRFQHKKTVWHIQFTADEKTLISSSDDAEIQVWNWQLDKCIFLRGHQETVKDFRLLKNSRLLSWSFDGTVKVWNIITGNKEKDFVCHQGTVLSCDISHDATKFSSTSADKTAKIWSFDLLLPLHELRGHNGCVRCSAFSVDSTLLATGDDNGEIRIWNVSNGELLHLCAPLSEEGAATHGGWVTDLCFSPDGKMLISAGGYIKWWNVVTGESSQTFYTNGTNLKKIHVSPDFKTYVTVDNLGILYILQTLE

[7] = target: Mitochondrial peptide methionine sulfoxide reductase (Bos taurus, UniProt P54149); assay type: functional;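 further: absorbance read-out, biochemical high-throughput dose-response screen for MsrA inhibitors, confirmatory; recombinant bovine MsrA coupled to E. coli TrxB with NADPH and selenocystamine; potency is for inhibitors of MsrA activity on DMSO substrate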
[8] = target: Photoreceptor-specific nuclear receptor (Homo sapiens, UniProt Q9Y5X4); assay type: functional, cell-based;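 further: CHO-S cells with Gal4-NCOR and VP16-NR2E3 two-hybrid luciferase reporter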
Photoreceptor-specific nuclear receptor, sequence (Q9Y5X4 whole entry, the tested form may be a part): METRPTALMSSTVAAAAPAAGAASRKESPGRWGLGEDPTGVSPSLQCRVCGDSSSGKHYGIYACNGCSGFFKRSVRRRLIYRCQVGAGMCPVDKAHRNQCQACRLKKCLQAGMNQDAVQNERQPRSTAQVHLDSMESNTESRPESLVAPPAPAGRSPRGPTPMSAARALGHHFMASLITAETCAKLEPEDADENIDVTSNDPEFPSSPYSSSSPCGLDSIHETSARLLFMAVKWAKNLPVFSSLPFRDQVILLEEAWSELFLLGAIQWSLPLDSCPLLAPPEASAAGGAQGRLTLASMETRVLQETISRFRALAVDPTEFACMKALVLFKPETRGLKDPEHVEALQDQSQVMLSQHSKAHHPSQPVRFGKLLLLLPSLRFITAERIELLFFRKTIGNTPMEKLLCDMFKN

Mitochondrial peptide methionine sulfoxide reductase, sequence (P54149 whole entry, the tested form may be a part): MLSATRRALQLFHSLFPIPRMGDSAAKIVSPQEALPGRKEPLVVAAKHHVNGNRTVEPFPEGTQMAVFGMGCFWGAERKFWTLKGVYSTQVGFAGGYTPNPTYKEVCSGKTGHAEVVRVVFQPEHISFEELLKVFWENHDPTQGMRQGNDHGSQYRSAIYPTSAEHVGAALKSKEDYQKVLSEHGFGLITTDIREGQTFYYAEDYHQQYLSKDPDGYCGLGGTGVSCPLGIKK
Tyrosyl-DNA phosphodiesterase 2, sequence (O95551 whole entry): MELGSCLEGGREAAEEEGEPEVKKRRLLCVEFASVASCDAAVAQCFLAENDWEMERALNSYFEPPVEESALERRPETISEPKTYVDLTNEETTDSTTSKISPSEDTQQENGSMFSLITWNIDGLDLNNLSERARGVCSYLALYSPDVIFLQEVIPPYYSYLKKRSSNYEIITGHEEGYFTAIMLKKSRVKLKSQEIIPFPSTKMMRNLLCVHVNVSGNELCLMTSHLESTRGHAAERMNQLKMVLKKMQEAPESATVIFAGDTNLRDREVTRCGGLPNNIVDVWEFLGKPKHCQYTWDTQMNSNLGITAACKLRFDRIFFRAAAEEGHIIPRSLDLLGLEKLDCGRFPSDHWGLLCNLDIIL

| SMILES | IC50 [1] | IC50 [2] | EC50 [3] | IC50 [4] | IC50 [5] | IC50 [6] | IC50 [7] | IC50 [8] |
| --- | --- | --- | --- | --- | --- | --- | --- | --- |
| Cc1ccc(NC2=CC(=O)C(=O)c3ccccc32)cc1 | 13.5 µM (active) | 26.2 µM (inactive) | 4.52 µM (active) | 31 µM (active) |  |  |  |  |
| O=C(O)c1ccc(S(=O)(=O)/N=C2\C=C(Nc3ccccc3F)C(=O)c3ccccc32)cc1 |  |  |  |  | 0.638 µM (active) | 3 µM (active) | 14.2 µM (inactive) | 12.2 µM (inactive) |
